Measured values: patent publication US20250248944A1, “SOFTGEL CAPSULES HAVING A FILL COMPOSITION COMPRISING APPLE CIDER VINEGAR” (CAPTEK SOFTGEL INTERNATIONAL, INC., priority 2024, published 2025)

Legend:
[1] = Compatibility of acetic acid sources with the gelatin and plasticizer matrix; format: physicochemical; settings: acetic acid source tested individually
Protocol: Various sources of acetic acid were tested in the laboratory to determine their compatibility with the gelatin and plasticizer matrix.

[2] = in softgel liquid fill materials
Text: The Bragg brand of apple cider vinegar hardshell capsules include sodium diacetate.

Row | Compound | compatibility with the gelatin and plasticizer matrix (reaction observed) [1] | effect on softgel shell [2]
1 | CC(=O)O.CC(=O)[O-].[Na+] [Sodium diacetate] | corroding a hole in the gelatin and causing leakage of the fill material | causes holes to form in the softgel shell
2 | CC(=O)O.NCCCC[C@H](N)C(=O)O [Lysine acetate powder, Lysine acetate] | completely liquefied | 
3 | CC(=O)[O-].CC(=O)[O-].[Zn+2] [Zinc acetate] | least reaction | 
4 | CC(=O)[O-].CC(=O)[O-].[Ca+2] [Calcium acetate] | partially gelled up and liquified | 
